According to patent US20220380366A1, “HETEROCYCLIC SULFOXIMINE COMPOUND AND INTERMEDIATE THEREOF, PREPARATION METHOD THEREFOR, AND APPLICATION THEREOF” (priority 2019, published 2022):
pIC50: −log10 of the molar value. Read-outs that look alike come from different tables or passages of the source.

What was measured:
RET(V804M) mutant = molecular target: T1, RET(V804M) mutant (Homo sapiens, UniProt P07949, V804M); assay: Biochemical IC50 of RET(V804M) mutant (33P-ATP filter binding, Reaction Biology)
T1 construct: purchased Reaction Biology Corporation (contract assay; enzyme is the CRO's)
T1 sequence (P07949 29-1114 V804M): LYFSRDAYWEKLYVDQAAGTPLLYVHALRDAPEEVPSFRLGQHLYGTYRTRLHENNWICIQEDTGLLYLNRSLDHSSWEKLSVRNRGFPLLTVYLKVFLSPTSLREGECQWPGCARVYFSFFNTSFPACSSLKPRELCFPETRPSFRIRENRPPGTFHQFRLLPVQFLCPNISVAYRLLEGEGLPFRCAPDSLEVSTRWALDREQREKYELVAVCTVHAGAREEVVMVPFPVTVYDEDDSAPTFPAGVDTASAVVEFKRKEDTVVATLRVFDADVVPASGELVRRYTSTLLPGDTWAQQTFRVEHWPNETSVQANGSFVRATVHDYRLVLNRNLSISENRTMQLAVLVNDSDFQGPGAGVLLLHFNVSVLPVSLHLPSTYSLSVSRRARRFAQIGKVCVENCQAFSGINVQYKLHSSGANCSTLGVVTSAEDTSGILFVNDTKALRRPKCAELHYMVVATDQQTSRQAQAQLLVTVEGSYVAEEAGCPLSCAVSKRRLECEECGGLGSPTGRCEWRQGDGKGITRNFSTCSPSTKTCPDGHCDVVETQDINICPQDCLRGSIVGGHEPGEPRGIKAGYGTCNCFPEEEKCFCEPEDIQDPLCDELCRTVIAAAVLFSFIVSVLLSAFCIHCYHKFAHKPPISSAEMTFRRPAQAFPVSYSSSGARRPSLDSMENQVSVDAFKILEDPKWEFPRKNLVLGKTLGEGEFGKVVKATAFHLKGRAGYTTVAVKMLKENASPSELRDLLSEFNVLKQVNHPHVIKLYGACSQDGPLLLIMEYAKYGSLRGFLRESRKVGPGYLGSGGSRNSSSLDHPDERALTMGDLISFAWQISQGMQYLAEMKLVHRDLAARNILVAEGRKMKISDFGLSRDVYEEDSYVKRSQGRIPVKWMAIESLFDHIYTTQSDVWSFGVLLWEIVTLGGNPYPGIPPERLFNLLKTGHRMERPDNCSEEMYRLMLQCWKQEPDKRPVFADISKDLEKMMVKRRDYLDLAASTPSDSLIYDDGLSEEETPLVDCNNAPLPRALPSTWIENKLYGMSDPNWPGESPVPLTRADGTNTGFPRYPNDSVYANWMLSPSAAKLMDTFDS
Procedure: (§1) For detailed test methods, the following references were referred to: T. Anastassiadis, S. W. Deacon, K. Devarajan, H. Ma, J. R. Peterson. […] Nat. Biotech.
(§2) The compounds of the present invention were dissolved in dimethyl sulfoxide (DMSO) to prepare 10 mM stock solutions, and ten different doses by 3-fold serial dilutions from 10 mM were prepared. The ATP concentration used in this determination was 1 μM.
(§3) Base reaction buffer: 20 mM 4-(2-hydroxyethyl)-1-piperazineethanesulfonic acid buffer (Hepes, pH 7.5), 10 mM magnesium chloride, 1 mM ethylene glycol-bis(3-aminoethylether)-N,N,N′,N′-tetraacetic acid (EGTA), 0.02% Brij™-35 (purchased from ThermoFisher Scientific), 0.02 mg/mL bovine serum albumin (BSA), 0.1 mM sodium orthovanadate (Na3VO4), 2 mM dithiothreitol (DTT), 1% dimethyl sulfoxide (DMSO).
(§4) a) adding the corresponding substrate to a freshly prepared base reaction buffer;
(§5) b) adding necessary cofactors;
(§6) c) adding kinase and shake gently;
(§7) d) adding the compounds in DMSO using Acoustic technology (Echo550; nanoliter range) and incubating at room temperature for 20 minutes;
(§8) e) adding 33P-ATP (specific activity 10 μCi/μL) to initiate the reaction;
(§9) f) incubating the kinase reaction at room temperature for 2 hours;
(§10) g) spotting the resultant of reaction on P81 ion exchange paper (purchased from Whatman);
(§11) h) detecting kinase activity by filter binding assay.
(§12) IC50 values were generated using Prism (GraphPad software).

RET-CCDC6 = molecular target: T2, RET-CCDC6 (Homo sapiens, UniProt P07949); assay: Biochemical IC50 of RET-CCDC6 fusion (33P-ATP filter binding, Reaction Biology)
T2 construct: CCDC6 (fusion partner, UniProt Q16204); purchased Reaction Biology Corporation (contract assay; enzyme is the CRO's); the other entry of the earlier key: CCDC6 (Q16204, Coiled-coil domain-containing protein 6)
T2 sequence (P07949 with tags, fused parts or gaps): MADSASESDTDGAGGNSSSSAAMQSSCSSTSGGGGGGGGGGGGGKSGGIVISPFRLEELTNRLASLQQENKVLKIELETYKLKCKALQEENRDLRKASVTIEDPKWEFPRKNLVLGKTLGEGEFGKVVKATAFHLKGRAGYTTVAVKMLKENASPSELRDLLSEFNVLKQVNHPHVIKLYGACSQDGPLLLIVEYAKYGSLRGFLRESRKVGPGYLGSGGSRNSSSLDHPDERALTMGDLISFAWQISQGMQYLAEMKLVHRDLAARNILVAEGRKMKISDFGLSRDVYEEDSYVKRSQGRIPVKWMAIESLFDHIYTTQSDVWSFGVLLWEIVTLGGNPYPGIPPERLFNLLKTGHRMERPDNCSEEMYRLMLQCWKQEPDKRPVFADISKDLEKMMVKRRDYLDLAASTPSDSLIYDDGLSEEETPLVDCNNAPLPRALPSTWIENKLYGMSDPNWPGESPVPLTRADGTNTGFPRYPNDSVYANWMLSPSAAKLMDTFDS
Procedure: as §1, §2, §3, §4, §5, §6, §7, §8, §9, §10, §11, §12

wild-type RET kinase = molecular target: T3, wild-type RET kinase (Homo sapiens, UniProt P07949); assay: Biochemical IC50 of wild-type RET kinase (33P-ATP filter binding, Reaction Biology)
T3 construct: purchased Reaction Biology Corporation (contract assay; enzyme is the CRO's)
T3 sequence (P07949 29-1114): as the sequence (P07949 29-1114 V804M) above, with M776V counted along it
Procedure: as §1, §2, §3, §4, §5, §6, §7, §8, §9, §10, §11, §12

[1] = tested on: Phospho-ERK in LC-2/ad lung cancer cells; assay: Phospho-ERK ELISA in LC-2/ad tumor cells; type: cell-based; settings: Homo sapiens, 1 h, read-out: Cell IC50 Phospho-ERK
Procedure: (§13) The compounds of the present invention were dissolved in dimethyl sulfoxide (DMSO) to prepare 10 mM stock solutions, and ten different doses by 3-fold serial dilutions from 10 mM were prepared. An ELISA assay format was used in the test.
(§14) PathScan® Phospho-Ret (panTyr) and p44/42 MAPK (Thr202/Tyr204) (ERK) Sandwich ELISA kits were purchased from Cell Signaling Technology. The LC-2/ad lung cancer cell line was purchased from Sigma-Aldrich. […] The medium was supplemented with 10% fetal bovine serum (FBS), 100 μg/mL penicillin and 100 μg/mL streptomycin, and the cultures were maintained at 37° C. in a humidified atmosphere of 5% CO2 and 95% air.
(§15) a) 1.5×10^4 LC-2/ad cells were seeded in the wells of a 96-well tissue culture plate overnight;
(§16) b) the cells were treated with DMSO or the test compound in DMSO (the initial concentration was 1 μM, and ten doses by 3-fold serial dilutions) for one hour;
(§17) The plate was shaken for 1 minute, then placed on a rocking platform at 4° C. for 30 minutes;
(§18) d) 80 μL/well of lysate was added to the appropriate wells of each ELISA plate and the plate was incubated overnight at 4° C. on a rocking platform;
(§19) e) the contents of the plate were discarded into a container and the wells were washed for four times with 200 μL/well of 1×ELISA wash buffer;
(§20) f) 100 μL of reconstituted Phospho-Ret(panTyr) or Phospho-ERK(Thr202/Tyr204; p44/42MAPK) detection antibody was added to the appropriate wells and the plate was incubated at 37° C. for 1 hour;
(§21) g) the washing procedure was repeated and 100 μL of reconstituted HRP-linked secondary antibody was added to each well of two plates and the plates were incubated at 37° C. for 30 minutes;
(§22) h) the washing procedure was repeated, 100 μL of TMB substrate was added to each well, and the plates were incubated at 37° C. for 45 minutes;
(§23) i) 100 μL of STOP solution was added to each well and the plate was gently shaken for a few seconds.

[2] = tested on: Phospho-RET in LC-2/ad lung cancer cells; assay: Phospho-RET ELISA in LC-2/ad tumor cells; type: cell-based; settings: Homo sapiens, 1 h, read-out: Cell IC50 Phospho-RET
Procedure: as §13, §14, §15, §16, §17, §18, §19, §20, §21, §22, §23

[3] = RET(V804M) mutant, ATP 1 μM, 33P-ATP filter binding, read-out: Biochemical IC50 RET (V804M)
[4] = RET-CCDC6 fusion, ATP 1 μM, 33P-ATP filter binding, read-out: Biochemical IC50 RET-CCDC6
[5] = wild-type RET kinase, ATP 1 μM, 33P-ATP filter binding, read-out: Biochemical IC50 RET

SMILES	pIC50 (RET(V804M) mutant; [3])	pIC50 (RET-CCDC6; [4])	pIC50 (wild-type RET kinase; [5])	pIC50 [1]	pIC50 ([2]; LC-2-ad)	pIC50 (RET(V804M) mutant)	pIC50 (RET-CCDC6)	pIC50 (wild-type RET kinase)	pIC50 ([2]; LC-2/ad lung cancer cells, one hour treatment, sandwich ELISA)
CC(C)(O)COc1cc(-c2ccc(N3CCS(=N)(=O)CC3)nc2)c2c(C#N)cnn2c1 [Ex. 2, 6-(2-hydroxy-2-methylpropoxy)-4-(6-(1-imino-1-oxothiomorpholinyl)pyridin-3-yl)pyrazolo[1,5-a]pyridine-3-carbonitrile]	7.67	8.55	8.37	–	–	–	–	–	–
COc1ccc(N=S2(=O)CCN(c3ccc(-c4cc(OCC(C)(C)O)cn5ncc(C#N)c45)cn3)CC2)cn1 [Ex. 3, 6-(2-hydroxy-2-methylpropoxy)-4-(6-(1-((6-methoxypyridin-3-yl)imino)-1-oxothiomorpholinyl)pyridin-3-yl)pyrazolo[1,5-a]pyridine-3-carbonitrile]	8.42	9.00	8.78	–	–	–	–	–	–
CC(C)CN=S1(=O)CCN(c2ccc(-c3cc(OCC(C)(C)O)cn4ncc(C#N)c34)cn2)CC1 [Ex. 4, 6-(2-hydroxy-2-methylpropoxy)-4-(6-(1-(isobutylimino)-1-oxothiomorpholinyl)pyridin-3-yl)pyrazolo[1,5-a]pyridine-3-carbonitrile]	7.25	8.34	8.17	–	–	–	–	–	–
COc1ccc(CN=S2(=O)CCN(c3ccc(-c4cc(OCC(C)(C)O)cn5ncc(C#N)c45)cn3)CC2)cn1 [Ex. 5, 6-(2-hydroxy-2-methylpropoxy)-4-(6-(1-(((6-methoxypyridin-3-yl)methyl)imino)-1-oxothiomorpholinyl)pyridin-3-yl)pyrazolo[1,5-a]pyridine-3-carbonitrile]	7.75	8.68	8.44	–	–	–	–	–	–
CC(C)(O)COc1cc(-c2ccc(N3CCS(=O)(=NC4CCNCC4)CC3)nc2)c2c(C#N)cnn2c1 [Ex. 7, 6-(2-hydroxy-2-methylpropoxy)-4-(6-(1-oxo-1-(piperidin-4-ylimino)thiomorpholinyl)pyridin-3-yl)pyrazolo[1,5-a]pyridine-3-carbonitrile]	6.78	7.90	7.74	–	–	–	–	–	–
CC(C)(O)COc1cc(-c2ccc(N3CCC(N=S(C)(C)=O)CC3)nc2)c2c(C#N)cnn2c1 [Ex. 8, 4-(6-(4-((dimethyloxo-λ^4-sulfinyl)amino)piperidin-1-yl)pyridin-3-yl)-6-(2-hydroxy-2-methylpropoxy)pyrazolo[1,5-a]pyridine-3-carbonitrile]	7.20	8.23	8.02	–	–	–	–	–	–
CC(C)(O)COc1cc(-c2ccc(N3CCC(N=[S@@](C)(=O)c4ccccc4)CC3)nc2)c2c(C#N)cnn2c1 [Ex. 9, 4-(6-(4-(((S)—S-methyl-S-phenyl-oxo-λ^4-sulfinyl)amino)piperidin-1-yl)pyridin-3-yl)-6-(2-hydroxy-2-methylpropoxy)pyrazolo[1,5-a]pyridine-3-carbonitrile]	6.86	8.09	7.85	–	–	–	–	–	–
CC(C)(O)COc1cc(-c2ccc(N3CCC(N=[S@](C)(=O)c4ccccc4)CC3)nc2)c2c(C#N)cnn2c1 [Ex. 10, 4-(6-(4-(((R)—S-methyl-S-phenyl-oxo-λ^4-sulfinyl)amino)piperidin-1-yl)pyridin-3-yl)-6-(2-hydroxy-2-methylpropoxy)pyrazolo[1,5-a]pyridine-3-carbonitrile]	7.44	8.34	8.21	–	–	–	–	–	–
Cn1cc(-c2cc(-c3ccc(N4CCS(=N)(=O)CC4)nc3)c3c(C#N)cnn3c2)cn1 [Ex. 12, 4-(6-(1-imino-1-oxothiomorpholinyl)pyridin-3-yl)-6-(1-methyl-1H-pyrazole-4-yl)pyrazolo[1,5-a]pyridine-3-carbonitrile]	8.26	9.28	9.07	6.61	7.94	–	–	–	–
CC(C)CN=S1(=O)CCN(c2ccc(-c3cc(-c4cnn(C)c4)cn4ncc(C#N)c34)cn2)CC1 [Ex. 13, 4-(6-(1-(isobutylimino)-1-oxothiomorpholinyl)pyridin-3-yl)-6-(1-methyl-1H-pyrazole-4-yl)pyrazolo[1,5-a]pyridine-3-carbonitrile]	–	–	–	8.18	7.79	8.29	9.38	9.05	–
Cn1cc(-c2cc(-c3ccc(N4CCC(N=[S@@](C)(=O)c5ccccc5)CC4)nc3)c3c(C#N)cnn3c2)cn1 [Ex. 17, 4-(6-(4-(((S)—S-methyl-S-phenyl-oxo-λ^4-sulfinyl)amino)piperidin-1-yl)pyridin-3-yl)-6-(1-methyl-1H-pyrazole-4-yl)pyrazolo[1,5-a]pyridine-3-carbonitrile]	7.97	9.11	8.83	–	–	–	–	–	–
COc1ccc(N=S2(=O)CCN(c3ccc(-c4nc(-c5cnn(C)c5)cn5ncc(C#N)c45)cn3)CC2)cn1 [Ex. 22, 4-(6-(1-((6-methoxypyridin-3-yl)imino)-1-oxothiomorpholinyl)pyridin-3-yl)-6-(1-methyl-1H-pyrazole-4-yl)pyrazolo[1,5-a]pyrazine-3-carbonitrile]	8.49	9.39	9.17	–	–	–	–	–	–
Cn1cc(-c2cn3ncc(C#N)c3c(-c3ccc(N4CCC(N=S(C)(C)=O)CC4)nc3)n2)cn1 [Ex. 23, 4-(6-(4-((dimethyloxo-λ^4-sulfinyl)amino)piperidin-1-yl)pyridin-3-yl)-6-(1-methyl-1H-pyrazole-4-yl)pyrazolo[1,5-a]pyrazine-3-carbonitrile]	–	–	–	–	–	7.60	8.67	8.39	–
Cn1cc(-c2cn3ncc(C#N)c3c(-c3ccc(N4CCC(N=[S@@](C)(=O)c5ccccc5)CC4)nc3)n2)cn1 [Ex. 24, 4-(6-(4-(((S)—S-methyl-S-phenyl-oxo-λ^4-sulfinyl)amino)piperidin-1-yl)pyridin-3-yl)-6-(1-methyl-1H-pyrazole-4-yl)pyrazolo[1,5-a]pyrazine-3-carbonitrile]	7.58	8.71	8.39	–	–	–	–	–	–
COc1ccc(CN2C3CC2CN(c2ccc(-c4cc(OCC(C)(C)O)cn5ncc(C#N)c45)cn2)C3)cn1 [LOXO292, reference compound]	–	–	–	< 6.00	–	–	–	–	8.22
